Test results reported in patent US20070093520A1, “Method of treatment of diarrhea-predominant irritable bowel syndrome in a subject” (priority 2005, published 2007).

Test system: diarrhea-predominant IBS subjects
Experiment: 3007 Study: open-label 52-week safety study, adverse events and withdrawals
Details: Overall

In the case of `Cc1nccn1C[C@H]1CCc2c(c3cccc4c3n2CCC4)C1=O` [cilansetron, (R)-(−)-4,5,6,8,9,10-hexahydro-10-[(2-methyl-1H-imidazol-1-yl)methyl]-11H-pyrido-[3,2,1-jk]-carbazol-11-one], the “TEAE: Atopic Disorders” value is reported as 5 (<1%) n (%), the “TEAE: Atrial Fibrillation” value is reported as 1 (<1%) n (%) and the “TEAE: Atrioventricular Block First Degree” value is reported as 1 (<1%) n (%). For the same molecule, the “TEAE: Back Injury NOS” value was 3 (<1%) n (%), the “TEAE: Back Pain” value was 18 (3%) n (%) and the “TEAE: Back Pain Aggravated” value was 3 (<1%) n (%). For the same molecule, the “TEAE: Bacteria Identification and Serology (Excl Mycobacteria)” value was 1 (<1%) n (%), the “TEAE: Basal Cell Carcinoma” value was 6 (1%) n (%) and the “TEAE: Behaviour and Socialisation Disturbances” value was 1 (<1%) n (%). For the same molecule, the “TEAE: Benign Ovarian Tumour*” value was 1 (<1%) n (%), the “TEAE: Biliary Tract Disorder NOS” value was 1 (<1%) n (%) and the “TEAE: Bilirubin Urine” value was 1 (<1%) n (%). The “TEAE: Binocular Eye Movement Disorder NOS” value was 1 (<1%) n (%), the “TEAE: Bladder Disorders NEC” value was 1 (<1%) n (%) and the “TEAE: Bladder Infection NOS” value was 1 (<1%) n (%). For the same molecule, the “TEAE: Bladder Infections and Inflammations” value was 1 (<1%) n (%), the “TEAE: Bladder Prolapse” value was 1 (<1%) n (%) and the “TEAE: Bladder and Urethral Symptoms” value was 7 (1%) n (%). The “TEAE: Blood Alkaline Phosphatase NOS Increased” value was 3 (<1%) n (%), the “TEAE: Blood Bilirubin Increased” value was 4 (<1%) n (%) and the “TEAE: Blood Cholesterol Increased” value was 19 (4%) n (%). For the same molecule, the “TEAE: Blood Creatine Phosphokinase Increased” value was 27 (5%) n (%), the “TEAE: Blood Creatine Phosphokinase Mb Increased” value was 1 (<1%) n (%) and the “TEAE: Blood Creatinine Increased” value was 4 (<1%) n (%). The “TEAE: Blood Glucose Increased” value was 2 (<1%) n (%), the “TEAE: Blood Potassium Increased” value was 1 (<1%) n (%) and the “TEAE: Blood Pressure Increased” value was 5 (<1%) n (%). The “TEAE: Blood Sodium Increased” value was 1 (<1%) n (%), the “TEAE: Blood Triglycerides Increased” value was 10 (2%) n (%) and the “TEAE: Blood Uric Acid Increased” value was 2 (<1%) n (%). The “TEAE: Blood Urine Present” value was 10 (2%) n (%), the “TEAE: Blood and Lymphatic System Disorders” value was 5 (<1%) n (%) and the “TEAE: Blood in Stool” value was 8 (1%) n (%). For the same molecule, the “TEAE: Bone Density Decreased” value was 1 (<1%) n (%), the “TEAE: Bone Disorder NOS” value was 1 (<1%) n (%) and the “TEAE: Bone Disorders NEC” value was 3 (<1%) n (%). For the same molecule, the “TEAE: Bone Injury” value was 1 (<1%) n (%), the “TEAE: Bone Neoplasm Malignant” value was 1 (<1%) n (%) and the “TEAE: Bone Neoplasms Malignant (Excl Sarcomas)” value was 1 (<1%) n (%). For the same molecule, the “TEAE: Bone Spur” value was 1 (<1%) n (%), the “TEAE: Bradyarrhythmia” value was 1 (<1%) n (%) and the “TEAE: Breast Calcifications*” value was 1 (<1%) n (%). For the same molecule, the “TEAE: Breast Cancer NOS*” value was 2 (<1%) n (%), the “TEAE: Breast Disorder NOS*” value was 1 (<1%) n (%) and the “TEAE: Breast Disorders NEC*” value was 5 (1%) n (%). The “TEAE: Breast Mass NOS*” value was 3 (<1%) n (%), the “TEAE: Breast and Nipple Neoplasms Malignant*” value was 2 (<1%) n (%) and the “TEAE: Breath Sounds Decreased” value was 1 (<1%) n (%). For the same molecule, the “TEAE: Breathing Abnormalities” value was 3 (<1%) n (%), the “TEAE: Bronchitis Acute NOS” value was 3 (<1%) n (%) and the “TEAE: Bronchitis NOS” value was 23 (4%) n (%). The “TEAE: Bronchopneumonia NOS” value was 1 (<1%) n (%), the “TEAE: Bronchospasm and Obstruction” value was 4 (<1%) n (%) and the “TEAE: Bruising, Ecchymosis and Purpura” value was 1 (<1%) n (%). For the same molecule, the “TEAE: Bundle Branch Block Right” value was 1 (<1%) n (%), the “TEAE: Bunion” value was 2 (<1%) n (%) and the “TEAE: Bursal Disorders” value was 6 (1%) n (%). The “TEAE: Bursitis” value was 3 (<1%) n (%), the “TEAE: Calculus Renal NOS” value was 3 (<1%) n (%) and the “TEAE: Calculus Ureteric” value was 1 (<1%) n (%). The “TEAE: Candida Infections” value was 4 (<1%) n (%), the “TEAE: Candidal Infection NOS” value was 2 (<1%) n (%) and the “TEAE: Carbohydrate Tolerance Analyses (Incl Diabetes)” value was 2 (<1%) n (%). The “TEAE: Cardiac Auscultatory Investigations” value was 1 (<1%) n (%), the “TEAE: Cardiac Conduction Disorders” value was 2 (<1%) n (%) and the “TEAE: Cardiac Disorders” value was 16 (3%) n (%). For the same molecule, the “TEAE: Cardiac Fibrillation NOS” value was 1 (<1%) n (%), the “TEAE: Cardiac Flutter” value was 1 (<1%) n (%) and the “TEAE: Cardiac Murmur NOS” value was 1 (<1%) n (%). For the same molecule, the “TEAE: Cardiac Signs and Symptoms NEC” value was 4 (<1%) n (%), the “TEAE: Carotid Bruit” value was 1 (<1%) n (%) and the “TEAE: Carpal Tunnel Syndrome” value was 3 (<1%) n (%). For the same molecule, the “TEAE: Cartilage Disorder NOS” value was 1 (<1%) n (%), the “TEAE: Cartilage Disorders” value was 1 (<1%) n (%) and the “TEAE: Cataract Unilateral” value was 1 (<1%) n (%). The “TEAE: Cataracts (Excl Congenital)” value was 2 (<1%) n (%), the “TEAE: Cellulitis” value was 1 (<1%) n (%) and the “TEAE: Cerumen Impaction” value was 2 (<1%) n (%). The “TEAE: Cervical Spasm” value was 1 (<1%) n (%), the “TEAE: Change in Bowel Habit NOS” value was 1 (<1%) n (%) and the “TEAE: Chapped Lips” value was 1 (<1%) n (%). The “TEAE: Chest Discomfort” value was 1 (<1%) n (%), the “TEAE: Chest Pain” value was 7 (1%) n (%) and the “TEAE: Chest Tightness” value was 1 (<1%) n (%). The “TEAE: Chest Wall Pain” value was 2 (<1%) n (%), the “TEAE: Cholecystitis and Cholelithiasis” value was 2 (<1%) n (%) and the “TEAE: Cholelithiasis” value was 2 (<1%) n (%). The “TEAE: Cholesterol Analyses” value was 19 (4%) n (%), the “TEAE: Colitis (Excl Infective)” value was 1 (<1%) n (%) and the “TEAE: Colitis Ischaemic” value was 1 (<1%) n (%). For the same molecule, the “TEAE: Colonic Polyp” value was 1 (<1%) n (%), the “TEAE: Congenital, Familial and Genetic Disorders” value was 1 (<1%) n (%) and the “TEAE: Conjunctival Infections, Irritations and Inflammations” value was 2 (<1%) n (%). The “TEAE: Conjunctivitis” value was 1 (<1%) n (%), the “TEAE: Conjunctivitis Allergic” value was 1 (<1%) n (%) and the “TEAE: Connective Tissue Disorders (Excl Le)” value was 4 (<1%) n (%). The “TEAE: Constipation” value was 128 (24%) n (%), the “TEAE: Contusion” value was 3 (<1%) n (%) and the “TEAE: Cough” value was 11 (2%) n (%). For the same molecule, the “TEAE: Coughing and Associated Symptoms” value was 12 (2%) n (%), the “TEAE: Cyst NOS” value was 1 (<1%) n (%) and the “TEAE: Cystitis Interstitial” value was 1 (<1%) n (%). For the same molecule, the “TEAE: Cystitis NOS” value was 1 (<1%) n (%), the “TEAE: Dacryostenosis Acquired” value was 1 (<1%) n (%) and the “TEAE: Deafness NOS” value was 1 (<1%) n (%). The “TEAE: Dehydration” value was 2 (<1%) n (%), the “TEAE: Dental Disorders NEC” value was 1 (<1%) n (%) and the “TEAE: Dental Infections - Pathogen Class Unspecified” value was 11 (2%) n (%). The “TEAE: Dental Pain and Sensation Disorders” value was 3 (<1%) n (%), the “TEAE: Depression” value was 9 (2%) n (%) and the “TEAE: Depression Aggravated” value was 4 (<1%) n (%). The “TEAE: Depressive Disorders” value was 13 (2%) n (%), the “TEAE: Dermal and Epidermal Conditions NEC” value was 5 (<1%) n (%) and the “TEAE: Dermatitis Allergic” value was 1 (<1%) n (%). For the same molecule, the “TEAE: Dermatitis Ascribed to Specific Agent” value was 1 (<1%) n (%), the “TEAE: Dermatitis Contact” value was 2 (<1%) n (%) and the “TEAE: Dermatitis Medicamentosa” value was 1 (<1%) n (%). The “TEAE: Dermatitis NOS” value was 1 (<1%) n (%), the “TEAE: Dermatitis and Eczema” value was 6 (1%) n (%) and the “TEAE: Dermographism” value was 1 (<1%) n (%). For the same molecule, the “TEAE: Diabetes Mellitus (Incl Subtypes)” value was 3 (<1%) n (%), the “TEAE: Diabetes Mellitus Aggravated” value was 2 (<1%) n (%) and the “TEAE: Diabetes Mellitus Non-Insulin-Dependent” value was 1 (<1%) n (%). The “TEAE: Diaphragmatic Hernias” value was 2 (<1%) n (%), the “TEAE: Diarrhoea (Excl Infective)” value was 39 (7%) n (%) and the “TEAE: Diarrhoea Aggravated” value was 5 (<1%) n (%). The “TEAE: Diarrhoea Haemorrhagic” value was 2 (<1%) n (%), the “TEAE: Diarrhoea NOS” value was 31 (6%) n (%) and the “TEAE: Disturbances in Consciousness NEC” value was 4 (<1%) n (%). The “TEAE: Disturbances in Initiating and Maintaining Sleep” value was 6 (1%) n (%), the “TEAE: Diverticulitis NOS” value was 2 (<1%) n (%) and the “TEAE: Diverticulum Inflammations” value was 2 (<1%) n (%). For the same molecule, the “TEAE: Dizziness” value was 6 (1%) n (%), the “TEAE: Drug Hypersensitivity” value was 1 (<1%) n (%) and the “TEAE: Dry Eye NOS” value was 2 (<1%) n (%). For the same molecule, the “TEAE: Dry Mouth” value was 2 (<1%) n (%), the “TEAE: Dysarthria” value was 1 (<1%) n (%) and the “TEAE: Dysfunctional Uterine Bleeding*” value was 1 (<1%) n (%). For the same molecule, the “TEAE: Dyshidrosis” value was 1 (<1%) n (%), the “TEAE: Dyskinesias and Movement Disorders NEC” value was 1 (<1%) n (%) and the “TEAE: Dyspepsia” value was 13 (2%) n (%). The “TEAE: Dyspepsia Aggravated” value was 2 (<1%) n (%), the “TEAE: Dyspeptic Signs and Symptoms” value was 17 (3%) n (%) and the “TEAE: Dyspnoea NOS” value was 3 (<1%) n (%). The “TEAE: Dysuria” value was 1 (<1%) n (%), the “TEAE: ECG Investigations” value was 2 (<1%) n (%) and the “TEAE: Ear Disorders NEC” value was 2 (<1%) n (%). The “TEAE: Ear Infection NOS” value was 4 (<1%) n (%), the “TEAE: Ear Infections” value was 5 (<1%) n (%) and the “TEAE: Ear Pain” value was 2 (<1%) n (%). The “TEAE: Ear and Labyrinth Disorders” value was 10 (2%) n (%), the “TEAE: Eczema” value was 2 (<1%) n (%) and the “TEAE: Electrocardiogram Qrs Complex Abnormal” value was 1 (<1%) n (%). For the same molecule, the “TEAE: Electrocardiogram T Wave Inversion” value was 1 (<1%) n (%), the “TEAE: Elevated Cholesterol” value was 6 (1%) n (%) and the “TEAE: Endocrine Disorders” value was 4 (<1%) n (%). The “TEAE: Endometriosis*” value was 2 (<1%) n (%), the “TEAE: Enteritis” value was 1 (<1%) n (%) and the “TEAE: Epigastric Discomfort” value was 1 (<1%) n (%). For the same molecule, the “TEAE: Eructation” value was 2 (<1%) n (%), the “TEAE: Erythema” value was 1 (<1%) n (%) and the “TEAE: Erythemas” value was 1 (<1%) n (%). For the same molecule, the “TEAE: External Ear Disorders NEC” value was 2 (<1%) n (%), the “TEAE: Eye Disorders” value was 13 (2%) n (%) and the “TEAE: Eye Injuries NEC” value was 1 (<1%) n (%). The “TEAE: Faecal Abnormality NOS” value was 2 (<1%) n (%), the “TEAE: Faecal Impaction” value was 1 (<1%) n (%) and the “TEAE: Faecal Incontinence” value was 4 (<1%) n (%). The “TEAE: Faecal Occult Blood Positive” value was 31 (6%) n (%).
